US8148391B2 (Cephalon, Inc., priority 2006, dated 2012)
Where two headings read alike, the source gives them in different places. Each block holds one compound with its values, some of them ahead of it.

Legend:
[1] = molecular target: T1, baculovirus-expressed ALK (Homo sapiens, UniProt Q9UM73); assay: ALK Kinase Assay (ELISA-type, time-resolved fluorescence); format: biochemical
T1 construct: host or cells: baculovirus expression system
Summary of the method: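 Substrate coating: phospholipase C-γ, 10 μg/mL in TBS. Kinase step: 30 ng/ml ALK, 15 min, 37° C. Detection and analysis: Eu-N1 PT66 antibody, with IC50 fitted as a sigmoidal variable-slope dose-response curve.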

[2] = molecular target: T2, c-Met (cytoplasmic domain) (Homo sapiens, UniProt P08581); assay: c-Met Kinase Assay (same methods as for ALK, with modifications); format: biochemical
T2 construct: 10 ng/mL c-Met (cytoplasmic domain, Invitrogen Corporation #PV3143); purchased Invitrogen Corporation PV3143
Summary of the method: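 This plate-based kinase format uses immobilized phospholipase C-γ as substrate, phosphorylated by c-Met cytoplasmic domain (10 ng/mL) at 37° C for 15 minutes.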

[3] = ALK kinase inhibition, 1 μM ATP (Km level), read-out: ALK Activity
[4] = c-Met kinase inhibition, 1 μM ATP (Km level), read-out: cMet Activity
[5] = 1 μM ATP (Km level), read-out: ALK Activity (ALK Kinase Inhibition, IC50)
[6] = 1 μM ATP (Km level), read-out: cMet Activity (c-Met Kinase Inhibition, IC50)
[7] = 1 μM ATP (Km level), 30 ng/ml ALK, 37° C., 15 minutes, read-out: ALK Activity (ALK kinase inhibition, IC50 class)
[8] = 1 μM ATP (Km level), 10 ng/mL c-Met, read-out: cMet Activity (c-Met kinase inhibition, IC50 class)
[9] = ALK kinase inhibition, 1 μM ATP, read-out: ALK Activity
[10] = c-Met kinase inhibition, 1 μM ATP, read-out: cMet Activity

T1 sequence (Q9UM73 19-1620): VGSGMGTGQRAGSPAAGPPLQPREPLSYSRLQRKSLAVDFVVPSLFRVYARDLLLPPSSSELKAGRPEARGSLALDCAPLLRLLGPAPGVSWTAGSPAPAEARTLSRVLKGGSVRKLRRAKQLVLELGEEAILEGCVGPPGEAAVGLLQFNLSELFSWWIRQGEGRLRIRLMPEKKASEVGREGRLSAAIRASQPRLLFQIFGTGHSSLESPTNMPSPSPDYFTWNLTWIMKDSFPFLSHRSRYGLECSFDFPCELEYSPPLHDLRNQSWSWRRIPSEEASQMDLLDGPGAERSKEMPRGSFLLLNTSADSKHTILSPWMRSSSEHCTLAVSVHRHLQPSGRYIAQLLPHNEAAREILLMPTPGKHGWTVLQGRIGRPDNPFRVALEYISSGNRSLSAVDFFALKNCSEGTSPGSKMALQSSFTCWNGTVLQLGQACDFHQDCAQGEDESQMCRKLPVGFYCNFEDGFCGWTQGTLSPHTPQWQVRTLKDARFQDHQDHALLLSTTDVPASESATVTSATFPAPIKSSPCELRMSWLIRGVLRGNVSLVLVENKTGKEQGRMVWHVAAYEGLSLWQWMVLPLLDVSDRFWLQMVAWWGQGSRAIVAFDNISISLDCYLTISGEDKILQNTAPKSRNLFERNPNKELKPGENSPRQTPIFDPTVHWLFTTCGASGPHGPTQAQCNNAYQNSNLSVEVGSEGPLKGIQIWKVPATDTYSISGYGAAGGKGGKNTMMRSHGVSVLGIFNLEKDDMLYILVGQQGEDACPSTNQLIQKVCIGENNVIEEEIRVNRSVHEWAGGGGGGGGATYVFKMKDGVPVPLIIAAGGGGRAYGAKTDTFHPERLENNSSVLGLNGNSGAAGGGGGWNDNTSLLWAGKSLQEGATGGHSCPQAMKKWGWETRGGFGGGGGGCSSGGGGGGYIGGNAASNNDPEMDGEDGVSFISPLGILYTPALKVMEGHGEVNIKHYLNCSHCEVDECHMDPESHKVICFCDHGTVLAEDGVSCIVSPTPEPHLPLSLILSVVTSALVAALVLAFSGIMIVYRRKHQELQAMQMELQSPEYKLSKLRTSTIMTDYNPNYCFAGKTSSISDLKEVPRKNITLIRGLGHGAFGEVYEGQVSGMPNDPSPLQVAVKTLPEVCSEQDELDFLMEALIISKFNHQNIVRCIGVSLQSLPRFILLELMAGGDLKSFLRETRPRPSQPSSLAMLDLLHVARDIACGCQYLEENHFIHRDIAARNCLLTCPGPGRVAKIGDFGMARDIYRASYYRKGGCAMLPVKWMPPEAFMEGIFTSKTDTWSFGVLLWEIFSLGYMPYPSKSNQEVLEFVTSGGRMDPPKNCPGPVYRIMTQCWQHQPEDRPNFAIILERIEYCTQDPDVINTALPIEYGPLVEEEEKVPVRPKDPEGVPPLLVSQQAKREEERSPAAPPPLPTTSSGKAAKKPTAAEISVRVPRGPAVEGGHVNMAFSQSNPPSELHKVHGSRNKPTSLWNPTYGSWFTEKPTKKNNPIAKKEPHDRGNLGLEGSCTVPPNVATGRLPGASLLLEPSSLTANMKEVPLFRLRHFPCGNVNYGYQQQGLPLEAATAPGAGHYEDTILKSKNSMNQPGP
T2 sequence (P08581 956-1390 limits assumed): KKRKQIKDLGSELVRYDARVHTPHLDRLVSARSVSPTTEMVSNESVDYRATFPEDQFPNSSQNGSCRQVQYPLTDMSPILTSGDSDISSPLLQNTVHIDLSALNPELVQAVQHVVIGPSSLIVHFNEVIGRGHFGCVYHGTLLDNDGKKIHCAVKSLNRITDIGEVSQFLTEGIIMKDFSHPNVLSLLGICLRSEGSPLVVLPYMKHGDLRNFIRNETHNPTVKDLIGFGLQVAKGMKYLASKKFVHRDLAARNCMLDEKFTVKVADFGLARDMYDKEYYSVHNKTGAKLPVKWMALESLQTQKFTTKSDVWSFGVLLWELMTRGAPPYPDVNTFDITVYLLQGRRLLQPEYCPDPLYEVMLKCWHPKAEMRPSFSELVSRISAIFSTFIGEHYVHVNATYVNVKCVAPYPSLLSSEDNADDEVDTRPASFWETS

SMILES: CCN1CCc2cc(Nc3ncc(Cl)c(Nc4ccccc4C(=O)NC)n3)c(OC)cc2CC1 [Example 48, 2-[5-Chloro-2-(3-ethyl-8-methoxy-2,3,4,5-tetrahydro-1H-benzo[d]azepin-7-ylamino)-pyrimidin-4-ylamino]-N-methyl-benzamide]
IC50 [1, 3]: < 100 nM | IC50 [2, 4]: 1000 to 10000 nM

SMILES: CCN1CCc2cc(Nc3ncc(Cl)c(Nc4ccccc4C(=O)NC)n3)c(OC)cc2CC1=O [Example 253, 2-[5-Chloro-2-(3-ethyl-8-methoxy-2-oxo-2,3,4,5-tetrahydro-1H-benzo[d]azepin-7-ylamino)-pyrimidin-4-ylamino]-N-methyl-benzamide]
IC50 [1, 3]: < 100 nM | IC50 [2, 4]: 1000 to 10000 nM

SMILES: COc1c(Nc2ncc(Cl)c(N[C@H]3[C@@H](C(N)=O)[C@@H]4C=C[C@H]3C4)n2)ccc2c1CCC(NCC(F)(F)F)CC2 (stereo partly drawn) [Example 679, (1S,2S,3R,4R)-3-{5-Chloro-2-[1-methoxy-7-(2,2,2-trifluoro-ethylamino)-6,7,8,9-tetrahydro-5H-benzocyclohepten-2-ylamino]-pyrimidin-4-ylamino}-bicyclo[2.2.1]hept-5-ene-2-carboxylic acid amide]
IC50 [1, 5]: < 100 nM | IC50 [2, 6]: > 10000 nM

SMILES: CNC(=O)c1ccccc1Nc1nc(Nc2ccc3c(c2)C2CCC(C3)N2S(C)(=O)=O)ncc1Cl (racemic) [Example 102, (+/−)-2-[5-Chloro-2-(12-methanesulfonyl-12-aza-tricyclo[7.2.1.0*2,7*]dodeca-2(7),3,5-trien-4-ylamino)-pyrimidin-4-ylamino]-N-methyl-benzamide]
IC50 [1, 3]: < 100 nM | IC50 [2, 4]: < 100 nM

SMILES: COc1ccc(Nc2nc(Nc3ccc4c(c3)C(C)(C)CCC(=O)N4C)ncc2Cl)c(-n2cccn2)c1 [Example 619, 7-[5-Chloro-4-(4-methoxy-2-pyrazol-1-yl-phenylamino)-pyrimidin-2-ylamino]-1,5,5-trimethyl-1,3,4,5-tetrahydro-benzo[b]azepin-2-one]
IC50 [1, 5]: < 100 nM | IC50 [2, 6]: 100 to 1000 nM

SMILES: COc1cc2c(cc1Nc1ncc(Cl)c(Nc3ccc(N4CCN(C)CC4)cc3OC)n1)CCN(CC(N)=O)CC2 [Example 807, 2-(7-{5-Chloro-4-[2-methoxy-4-(4-methyl-piperazin-1-yl)-phenylamino]-pyrimidin-2-ylamino}-8-methoxy-1,2,4,5-tetrahydro-benzo[d]azepin-3-yl)-acetamide]
IC50 [1, 5]: < 100 nM | IC50 [2, 6]: > 10000 nM

SMILES: COCCOC(=O)C1[C@@H]2C=C[C@@H](C2)[C@H]1Nc1nc(Nc2ccc3c(c2OC)CC[C@@H](N2CCOCC2)CC3)ncc1Cl (single isomer, unassigned) [Example 904]
IC50 [1, 5]: 1000 to 10000 nM | IC50 [2, 6]: > 10000 nM

SMILES: CNC(=O)c1ccccc1Nc1nc(Nc2ccc3c(c2)CCN(S(C)(=O)=O)CC3)ncc1Cl [Example 42, 2-[5-Chloro-2-(3-methanesulfonyl-2,3,4,5-tetrahydro-1H-benzo[d]azepin-7-ylamino)-pyrimidin-4-ylamino]-N-methyl-benzamide]
IC50 [1, 3]: < 100 nM | IC50 [2, 4]: < 100 nM

SMILES: CCN1C(=O)C(C)(C)CCc2c1ccc(Nc1ncc(Cl)c(Nc3ccc(N4CCOCC4)cc3OC)n1)c2OC [Example 141, 7-[5-Chloro-4-(2-methoxy-4-morpholin-4-yl-phenylamino)-pyrimidin-2-ylamino]-1-ethyl-6-methoxy-3,3-dimethyl-1,3,4,5-tetrahydro-benzo[b]azepin-2-one]
IC50 [1, 3]: 100 to 1000 nM | IC50 [2, 4]: > 10000 nM

SMILES: CC(=O)N1CC2CCC(C1)c1cc(Nc3ncc(Cl)c(N[C@@H]4CCCC[C@H]4NS(C)(=O)=O)n3)ccc12 (stereo partly drawn) [Example 295, N-{(1R,2R)-2-[2-(10-Acetyl-10-aza-tricyclo[6.3.2.0*2,7*]trideca-2,4,6-trien-4-ylamino)-5-chloro-pyrimidin-4-ylamino]-cyclohexyl}-methanesulfonamide]
IC50 [1, 3]: < 100 nM | IC50 [2, 4]: 100 to 1000 nM

SMILES: COCCN1CCc2ccc(Nc3ncc(Cl)c(Nc4cc(C)n[nH]4)n3)cc2CC1 [Example 955, 5-Chloro-N(2)-[3-(2-methoxy-ethyl)-2,3,4,5-tetrahydro-1H-3-benzazepin-7-yl]-N(4)-(5-methyl-2H-pyrazol-3-yl)-pyrimidine-2,4-diamine]
IC50 [1, 5]: 100 to 1000 nM | IC50 [2, 6]: 1000 to 10000 nM

SMILES: CNC(=O)c1ccccc1Nc1nc(Nc2ccc3c(c2)CCN(CC(F)(F)F)CC3)ncc1Cl [Example 41, 2-{5-Chloro-2-[3-(2,2,2-trifluoro-ethyl)-2,3,4,5-tetrahydro-1H-benzo[d]azepin-7-ylamino]-pyrimidin-4-ylamino}-N-methyl-benzamide]
IC50 [1, 3]: < 100 nM | IC50 [2, 4]: < 100 nM

SMILES: CNS(=O)(=O)c1ccccc1Nc1nc(Nc2ccc3c(c2)COC[C@@H]2CCCN32)ncc1Cl [Example 13, 2-{5-Chloro-2-[(S)-(2,3,3a,4-tetrahydro-1H,6H-5-oxa-10b-aza-benzo[e]azulen-8-yl)amino]-pyrimidin-4-ylamino}-N-methyl-benzenesulfonamide]
IC50 [1, 3]: < 100 nM | IC50 [2, 4]: 1000 to 10000 nM

Second part, the compound after the results:

IC50 [1, 7]: < 100 nM | IC50 [2, 8]: 1000 to 10000 nM
SMILES: COc1cc2c(cc1Nc1ncc(Cl)c(Nc3ccccc3S(=O)(=O)N(C)C)n1)CCC(N1CCN(C)CC1)CC2 (stereo not drawn) [Example 1099, 2-{5-Chloro-2-[3-methoxy-7-(4-methyl-piperazin-1-yl)-6,7,8,9-tetrahydro-5H-benzocyclohepten-2-ylamino]-pyrimidin-4-ylamino}-N,N-dimethyl-benzenesulfonamide]

IC50 [1, 3]: < 100 nM | IC50 [2, 4]: < 100 nM
SMILES: CCN1C(=O)OCCc2ccc(Nc3ncc(Cl)c(Nc4ccsc4C(=O)NC)n3)cc21 [Example 1883, 3-[5-Chloro-2-(5-ethyl-6-oxo-5,6,8,9-tetrahydro-7-oxa-5-aza-benzocyclohepten-3-ylamino)-pyrimidin-4-ylamino]-thiophene-2-carboxylic acid methylamide]

IC50 [1, 7]: < 100 nM | IC50 [2, 8]: > 10000 nM
SMILES: COc1cc2c(cc1Nc1ncc(Cl)c(Nc3cccc(N4CCOCC4)c3)n1)CCN(CC(=O)N(C)C)CC2 [Example 1145, 2-{7-[5-Chloro-4-(3-morpholin-4-yl-phenylamino)-pyrimidin-2-ylamino]-8-methoxy-1,2,4,5-tetrahydro-benzo[d]azepin-3-yl}-N,N-dimethyl-acetamide]

IC50 [1, 7]: < 100 nM | IC50 [2, 8]: > 10000 nM
SMILES: COc1cc2c(cc1Nc1ncc(Cl)c(N[C@H]3[C@@H](C(N)=O)[C@@H]4C=C[C@H]3C4)n1)C(C)(C)CCC(=O)N2 [Example 1312]

IC50 [1, 9]: > 10000 nM | IC50 [2, 10]: 1000 to 10000 nM
SMILES: CNC(=O)c1noc(C)c1Nc1nc(Nc2ccc3c(c2)CCOC(=O)N3C)ncc1Cl [Example 1775, 4-[5-Chloro-2-(5-methyl-6-oxo-5,6,8,9-tetrahydro-7-oxa-5-aza-benzocyclohepten-2-ylamino)-pyrimidin-4-ylamino]-5-methyl-isoxazole-3-carboxylic acid methyl amide]

IC50 [1, 9]: < 100 nM | IC50 [2, 10]: 1000 to 10000 nM
SMILES: COc1cc(N2CCOCC2)ccc1Nc1nc(Nc2ccc3c(c2)N(CCN2CCCC2)CCCC3(C)C)ncc1Cl [Example 1610, 5-Chloro-N*2*-[5,5-dimethyl-1-(2-pyrrolidin-1-yl-ethyl)-2,3,4,5-tetrahydro-1H-benzo[b]azepin-8-yl]-N*4*-(2-methoxy-4-morpholin-4-yl-phenyl)-pyrimidine-2,4-diamine]

IC50 [1, 9]: 100 to 1000 nM | IC50 [2, 10]: < 100 nM
SMILES: CCN1C(=O)C(NC(=O)COC)CCc2ccc(Nc3ncc(Cl)c(Nc4c(F)cccc4C(=O)NC)n3)cc21 (stereo not drawn) [Example 1498, 2-{5-Chloro-2-[1-ethyl-3-(2-methoxy-acetylamino)-2-oxo-2,3,4,5-tetrahydro-1H-benzo[b]azepin-8-ylamino]-pyrimidin-4-ylamino}-3-fluoro-N-methyl-benzamide]

IC50 [1, 7]: < 100 nM | IC50 [2, 8]: > 10000 nM
SMILES: CCN1C(=O)C(NC(=O)C2CC2)CCc2c1ccc(Nc1ncc(Cl)c(Nc3ccccc3S(=O)(=O)N(C)C)n1)c2OC (stereo not drawn) [Example 1359, Cyclopropanecarboxylic acid {7-[5-chloro-4-(2-dimethylsulfamoyl-phenylamino)-pyrimidin-2-ylamino]-1-ethyl-6-methoxy-2-oxo-2,3,4,5-tetrahydro-1H-benzo[b]azepin-3-yl}-amide]

IC50 [1, 7]: < 100 nM | IC50 [2, 8]: > 10000 nM
SMILES: CCN1C(=O)CCCc2c1ccc(Nc1ncc(Cl)c(Nc3ccccc3-n3cccn3)n1)c2OC [Example 1319, 7-[5-Chloro-4-(2-pyrazol-1-yl-phenylamino)-pyrimidin-2-ylamino]-1-ethyl-6-methoxy-1,3,4,5-tetrahydro-benzo[b]azepin-2-one]

IC50 [1, 9]: 100 to 1000 nM | IC50 [2, 10]: 1000 to 10000 nM
SMILES: COCCN1CCc2ccc(Nc3ncc(Cl)c(Nc4c(F)cccc4C(=O)NCC4CC4)n3)cc2CC1 [Example 1711, 2-{5-Chloro-2-[3-(2-methoxy-ethyl)-2,3,4,5-tetrahydro-1H-benzo[d]azepin-7-ylamino]-pyrimidin-4-ylamino}-N-cyclopropylmethyl-3-fluoro-benzamide]

IC50 [1, 9]: 1000 to 10000 nM | IC50 [2, 10]: < 100 nM
SMILES: CNC(=O)c1scc(C)c1Nc1nc(Nc2ccc3c(c2)CNC(=O)CC3)ncc1Cl [Example 1795, 3-[5-Chloro-2-(3-oxo-2,3,4,5-tetrahydro-1H-benzo[c]azepin-8-ylamino)-pyrimidin-4-ylamino]-4-methyl-thiophene-2-carboxylic acid methylamide]
